Source: patent US20130338165A1 (Promentis Pharmaceuticals, Inc., priority 2012, published 2013)
Values belong to the compound of their own block, whether it stands above or below them.

Key:
[1] = tested on: cells; settings: cited from earlier work
[2] = tested on: mice treated with MPTP; settings: cited from earlier work
[3] = tested on: alpha-synuclein overexpressing mice; settings: mouse, in vivo; cited from earlier work
[4] = tested on: brain of rats; settings: systemic administration; cited from earlier work
[5] = tested on: brain of gerbils; settings: systemic administration; cited from earlier work
[6] = cited from earlier work
[7] = intravenous administration, clinical experiments; cited from earlier work
[8] = molecular target: T1, system xc− (Homo sapiens, UniProt Q9UPY5); test: in vitro screening assay of system xc− (14C-cystine uptake, 3H-glutamate) in 1321N1 cells; type: cell-based; settings: human glial cells from brain astrocytoma (1321N1)
T1 construct: a cell line with high system xc− expression; endogenous in cells; host or cells: 1321N1 human astrocytoma cells
T1 sequence (Q9UPY5 1-501): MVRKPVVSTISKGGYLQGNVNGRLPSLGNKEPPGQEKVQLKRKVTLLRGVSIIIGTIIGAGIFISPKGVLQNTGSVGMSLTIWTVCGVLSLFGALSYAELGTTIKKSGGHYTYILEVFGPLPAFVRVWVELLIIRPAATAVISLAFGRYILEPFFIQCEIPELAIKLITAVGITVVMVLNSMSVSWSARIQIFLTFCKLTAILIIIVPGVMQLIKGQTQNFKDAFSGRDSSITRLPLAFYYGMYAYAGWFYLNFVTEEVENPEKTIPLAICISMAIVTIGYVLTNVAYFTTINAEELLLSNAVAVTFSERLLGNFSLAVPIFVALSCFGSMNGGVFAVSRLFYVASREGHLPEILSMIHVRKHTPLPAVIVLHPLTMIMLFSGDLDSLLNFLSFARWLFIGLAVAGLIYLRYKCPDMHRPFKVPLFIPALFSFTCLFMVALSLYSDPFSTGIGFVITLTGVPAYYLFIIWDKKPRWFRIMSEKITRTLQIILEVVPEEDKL
T1 sequence (P08195 1-529 partner): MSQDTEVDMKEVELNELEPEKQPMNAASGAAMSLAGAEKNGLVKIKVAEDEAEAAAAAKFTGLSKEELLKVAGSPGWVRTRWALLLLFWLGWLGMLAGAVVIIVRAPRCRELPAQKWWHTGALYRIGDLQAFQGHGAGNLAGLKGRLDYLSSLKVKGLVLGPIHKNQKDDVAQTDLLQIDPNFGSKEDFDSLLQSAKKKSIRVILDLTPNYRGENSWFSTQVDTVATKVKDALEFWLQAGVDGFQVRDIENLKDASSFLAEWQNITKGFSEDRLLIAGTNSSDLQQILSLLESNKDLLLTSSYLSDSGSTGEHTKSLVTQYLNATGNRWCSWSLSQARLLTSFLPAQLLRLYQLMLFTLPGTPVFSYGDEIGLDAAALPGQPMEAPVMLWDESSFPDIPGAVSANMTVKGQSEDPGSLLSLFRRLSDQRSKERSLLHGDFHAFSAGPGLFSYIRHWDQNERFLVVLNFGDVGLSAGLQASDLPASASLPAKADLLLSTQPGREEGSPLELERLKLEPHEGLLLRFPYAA
Excerpt: Using an in vitro screening assay conducted in human glial cells from brain astrocytoma (1321N1), a cell line with high system xc− expression, the compound with the following formula: […]

[9] = pre-pulse inhibition (PPI) model of antipsychotic-like activity; type: in vivo; settings: orally-active
[10] = elevated plus maze (EPM) model of anxiolytic-like activity; type: in vivo; settings: orally-active

Structure (SMILES): CC(=O)N[C@H](CS)C(N)=O
protection of cells from neurotoxicity induced by rotenone [1]: protected cells from neurotoxicity

Structure (SMILES): CC(=O)N[C@@H](CS)C(=O)O [NAC, N-acetylcysteine]
neuroprotective effect in different MPTP mouse models ([2]; Aoyama et al., 2008, Perry et al., 1985): partial neuroprotective effect | therapeutic potential in MPTP-treated mice ([2]; mouse, in vivo): exhibited therapeutic potential | therapeutic potential in alpha-synuclein overexpressing mice [3]: exhibited therapeutic potential | protection against oxidative stress in the brain [4]: provides protection against oxidative stress | protection against oxidative stress in the brain [5]: provides protection against oxidative stress | solubility characteristics [6]: poor

Structure (SMILES): N[C@@H](CCC(=O)N[C@@H](CS)C(=O)NCC(=O)O)C(=O)O [glutathione]
solubility characteristics [6]: poor | reduction of motor impairment and disability [7]: 40%

3H-glutamate (glutamate release) [8]: significant elevations | uptake of 14C-cystine [8]: robust and significant decrease
Structure (SMILES): O=C(Cc1ccccc1)N[C@@H](CSC(c1ccccc1)(c1ccccc1)c1ccccc1)C(=O)O
behavioral effects in PPI model [9]: significant behavioral effects | behavioral effects in EPM model [10]: significant behavioral effects
